The values below come from article PMC6941846 (Bioorganic & medicinal chemistry, 2019).

Each structure is given as a SMILES string. Where two headings read alike, the source gives them in different places. Some results are limits rather than exact numbers.

Data set [1] has as its system HEK293T cells. Conditions: for reduction in cell number / cells killed: inhibitor 40 nM combined with compound 56 (90 nM or 270 nM).
The next data set can be described thus: in vitro. Conditions: human.
The target in data set [2] is T1, MELK (Homo sapiens, UniProt Q14680). Conditions: FACS-sorted β-cells, vs vehicle; cited from earlier work.
Data set [3] relates to human β-cells. The following applies: cited from earlier work.
For the next data set, the system named is 468 kinases. The data set is described as follows: Kinome SCAN profile. Type of data set: binding. The following applies: 100 nM.
Data set [4] has as its system human β-cells. The data set is described as follows: Human islet β-cell replication.
Data set [5] has as its target T2, DYRK1A (Homo sapiens, UniProt Q13627). The data set is described as follows: Kinome SCAN profile, DYRK1A. Type of data set: binding. The following applies: read-out: DYRK1A residual activity.
Data set [6] deals with HEK293T cells. Nature of the data set: Constitutive Renilla luciferase. Conditions: for fold reduction of cytotoxicity (R-Luc CC50): compared to OTS167 / parent; for R-Luc CC50: HEK293T cells, constitutive Renilla luciferase drops by 50%, 48 h; for Index (CC50/EC50), Cytotoxicity / Activity Index: R-Luc CC50 / DYRK1A-Luc EC50, HEK293T. Type of data set: cell-based.
Data set [7] concerns the target T2, DYRK1A. Nature of the data set: DYRK1A NFAT luciferase response assay. Type of data set: cell-based. Conditions: for DYRK1A-Luc EC50: HEK293T reporter cells, NFAT-dependent firefly luciferase, 48 h.
Data set [8] in a line: Caco-2 permeability assay. Type of data set: in vitro ADME. Conditions: 10 μM, pH 7.4, direction not stated.
Data set [9] can be described thus: Microsome stability assay, human liver microsomes. Type of data set: in vitro ADME. The following applies: 1 μM compound, NADPH.
The target in data set [10] is T1, MELK. The data set is described as follows: MELK kinase binding assay.
A short description of data set [11]: Microsome stability assay, mouse liver microsomes. In kind it is in vitro ADME. Conditions: 1 μM compound, NADPH.

T1 sequence (Q14680 whole entry): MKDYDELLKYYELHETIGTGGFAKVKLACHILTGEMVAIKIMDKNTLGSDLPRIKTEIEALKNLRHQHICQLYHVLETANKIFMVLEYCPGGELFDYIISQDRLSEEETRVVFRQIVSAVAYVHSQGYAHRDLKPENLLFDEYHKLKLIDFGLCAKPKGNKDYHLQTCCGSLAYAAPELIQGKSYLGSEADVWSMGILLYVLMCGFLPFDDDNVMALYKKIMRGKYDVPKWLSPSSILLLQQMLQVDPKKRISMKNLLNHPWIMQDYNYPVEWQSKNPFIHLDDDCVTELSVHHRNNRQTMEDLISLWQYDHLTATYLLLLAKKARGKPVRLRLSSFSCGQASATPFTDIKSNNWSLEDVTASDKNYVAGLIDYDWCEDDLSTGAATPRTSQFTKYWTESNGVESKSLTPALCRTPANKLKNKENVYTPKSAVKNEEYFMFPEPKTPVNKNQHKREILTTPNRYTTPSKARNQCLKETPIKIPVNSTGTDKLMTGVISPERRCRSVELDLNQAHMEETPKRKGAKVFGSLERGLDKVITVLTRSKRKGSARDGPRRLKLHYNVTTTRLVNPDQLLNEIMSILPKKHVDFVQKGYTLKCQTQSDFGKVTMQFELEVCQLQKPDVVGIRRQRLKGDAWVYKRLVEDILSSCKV

With `O=C(NC[C@H](O)CO)c1ccncc1Nc1ccc(I)cc1F` [AS-703026], in the data set on HEK293T cells [1] (inhibitor 10 uM combined with 56 (90 nM), 48 h), the cells killed was 6%.
On to `CCN(CCO)CCCOc1ccc2c(Nc3cc(CC(=O)Nc4cccc(F)c4)[nH]n3)ncnc2c1` [AZD-1152-HQPA], for which, in the data set “in vitro”, the CC50 at 48 h was found to be 38.9 nM. The “reduction in cell number / cells killed” value in the data set on HEK293T cells [1] (48 h) was determined as 67%.
For `c1cc(OCCN2CCCCC2)cc(-c2n[nH]c3ccc(-c4nc[nH]n4)cc23)c1` [CC-401], the “induction of MELK expression” value on MELK [2] is on record as 2.6 fold.
Regarding `Nc1ncnc2c1c(I)cn2[C@@H]1O[C@H](CO)[C@@H](O)[C@H]1O` [Compound 5-IT, 5-iodotubercidin], in the data set with human β-cells [3], the “human β-cell replication induction-potency [ECmin]” value is given as ~ 100 nM.
As for `CC(=O)c1cnc2ccc(-c3cc(Cl)c(O)c(Cl)c3)nc2c1N[C@H]1CC[C@H](CN(C)C)CC1` [Compound 5], in the data set on 468 kinases, the “kinases inhibited to less than 35% of baseline activity” value is on record as 189/403 and the “kinases with <1% residual activity” value is on record as 69/403. Besides, in the data set with human β-cells [4], the “dose range in which β-cell replication occurred” value was in the range of 5 to 40 nM. In addition, on DYRK1A [5], the remaining binding at 0.1 µM is below 1%.
As for `CCOC(=O)c1cnc2ccc(-c3cc(Cl)c(O)c(Cl)c3)nc2c1N[C@H]1CC[C@H](CN(C)C)CC1` [Compound 15, Ethyl-6-(3,5-dichloro-4-hydroxyphenyl)-4-(((trans)-4 ((dimethylamino)methyl)cyclohexyl)amino)-1,5-naphthyridine-3-carboxylate], the “fold reduction of cytotoxicity (R-Luc CC50)” value (“fold reduction of cytotoxicity” below) with HEK293T cells [6] (HEK293T) is recorded as ~ 3 fold.
In the case of `CN(C)C[C@H]1CC[C@H](Nc2c(C#N)cnc3ccc(-c4cc(Cl)c(O)c(Cl)c4)nc23)CC1` [Compound 16, 6-(3,5-Dichloro-4-hydroxyphenyl)-4-(((trans)-4-((dimethylamino)methyl)cyclohexyl)amino)-1,5-naphthyridine-3-carbonitrile], the “fold reduction in DYRK1A inhibition potency” value at DYRK1A [7] (compared to OTS167) is recorded as ~ 9 fold. For the same compound, in the data set with HEK293T cells [6], the “R-Luc CC50” value is “virtually non-toxic”.
Consider `CCOC(=O)c1cnc2ccc(-c3cc(Cl)c(O)c(Cl)c3)nc2c1Nc1ccc(CN(C)C)cc1` [Compound 27, Ethyl 6-(3,5-dichloro-4-hydroxyphenyl)-4-((4-((dimethylamino)methyl)phenyl)amino)-1,5-naphthyridine-3-carboxylate], for which the “DYRK1A-Luc EC50” value at DYRK1A [7] is on record as “maintained DYRK1A inhibition potency”. The “fold reduction of cytotoxicity” value with HEK293T cells [6] (HEK293T) was ~ 60 fold.
For the compound `CCOC(=O)c1cnc2ccc(-c3cc(Cl)c(O)c(Cl)c3)nc2c1N[C@H]1CC[C@H](C)CC1` [Compound 32, Ethyl 6-(3,5-dichloro-4-hydroxyphenyl)-4-(((trans)-4-methylcyclohexyl)amino)-1,5-naphthyridine-3-carboxylate], at DYRK1A [7], the “DYRK1A-Luc EC50” value was “eliminated cellular activity”.
For the compound `CCOC(=O)c1cnc2ccc(-c3cc(Cl)c(O)c(Cl)c3)nc2c1NC1CCN(C)CC1` [Compound 34, Ethyl 6-(3,5-dichloro-4-hydroxyphenyl)-4-((1-methylpiperidin-4-yl)amino)-1,5-naphthyridine-3-carboxylate], the “fold increase in the Cytotoxicity / Activity Index” value in the data set on HEK293T cells [6] (compared to OTS167) is ~ 13 fold. For the same compound, in the data set with HEK293T cells [6] (HEK293T), the “fold reduction of cytotoxicity” value is listed as ~ 16 fold. Further, the Caco-2 in data set [8] is given as 4.6 1 x 10^−6 cm/s.
Take `CCOC(=O)c1cnc2ccc(-c3cc(Cl)c(O)c(Cl)c3)nc2c1N1CCCCC1` [Compound 35, Ethyl 6-(3,5-dichloro-4-hydroxyphenyl)-4-(piperidin-1-yl)-1,5-naphthyridine-3-carboxylate]: the “DYRK1A-Luc EC50” value at DYRK1A [7] is reported as “reduced DYRK1A inhibition potency”. Also, the “R-Luc CC50” value in the data set with HEK293T cells [6] is reported as “reduced cytotoxicity”.
In the same order, the values of `CCOC(=O)c1cnc2ccc(-c3cc(Cl)c(O)c(Cl)c3)nc2c1N1CCC(C)CC1` [Compound 36, Ethyl 6-(3,5-dichloro-4-hydroxyphenyl)-4-(4-methylpiperidin-1-yl)-1,5-naphthyridine-3-carboxylate] are “reduced DYRK1A inhibition potency” and “reduced cytotoxicity”.
In the same order, the values of `CCOC(=O)c1cnc2ccc(-c3cc(Cl)c(O)c(Cl)c3)nc2c1N1CCOCC1` [Compound 37, Ethyl 6-(3,5-dichloro-4-hydroxyphenyl)-4-morpholino-1,5-naphthyridine-3-carboxylate] are “reduced DYRK1A inhibition potency” and “reduced cytotoxicity”.
On to `CCOC(=O)c1cnc2ccc(-c3cc(Cl)c(O)c(Cl)c3)nc2c1N1CCNCC1` [Compound 38, Ethyl 6-(3,5-dichloro-4-hydroxyphenyl)-4-(piperazin-1-yl)-1,5-naphthyridine-3-carboxylate], for which, at DYRK1A [7], the “DYRK1A-Luc EC50” value is “reduced DYRK1A inhibition potency”. Moreover, the “fold less toxic than butyl amide counterpart (R-Luc CC50)” value in the data set with HEK293T cells [6] (HEK293T) amounted to 7 fold. For the same compound, in the data set on HEK293T cells [6], the “R-Luc CC50” value was “reduced cytotoxicity” and the “Index (CC50/EC50), Cytotoxicity / Activity Index” value came out at 137.
Consider `CCOC(=O)c1cnc2ccc(-c3cc(Cl)c(O)c(Cl)c3)nc2c1N[C@H]1CC[C@H](C(=O)N(C)C)CC1` [Compound 42, Ethyl 6-(3,5-dichloro-4-hydroxyphenyl)-4-(((trans)-4-(dimethylcarbamoyl)cyclohexyl)amino)-1,5-naphthyridine-3-carboxylate], for which the Caco-2 in data set [8] is on record as 0.12 1 x 10^−6 cm/s.
Same read-out and setting: for `CCCCNC(=O)c1cnc2ccc(-c3cc(Cl)c(O)c(Cl)c3)nc2c1N[C@H]1CC[C@H](C(=O)N2CCOCC2)CC1` [Compound 47] the value was 9.1 1 x 10^−6 cm/s; for `CCOC(=O)c1cnc2ccc(-c3cc(Cl)c(O)c(Cl)c3)nc2c1N[C@H]1CC[C@H](CC(N)=O)CC1` [Compound 49, Ethyl 4-(((trans)-4-(2-amino-2-oxoethyl)cyclohexyl)amino)-6-(3,5-dichloro-4-hydroxyphenyl)-1,5-naphthyridine-3-carboxylate], 0.01 1 x 10^−6 cm/s.
Consider `CCOC(=O)c1cnc2ccc(-c3cc(Cl)cc(Cl)c3)nc2c1N[C@H]1CC[C@H](CN(C)C)CC1` [Compound 50, Ethyl 6-(3,5-dichlorophenyl)-4-(((trans)-4-((dimethylamino)methyl)cyclohexyl)amino)-1,5-naphthyridine-3-carboxylate], for which the “DYRK1A-Luc EC50” value at DYRK1A [7] is “abrogated DYRK1A-inhibition”.
As to `CCOC(=O)c1cnc2ccc(-c3cc(C)c(O)c(C)c3)nc2c1N[C@H]1CC[C@H](CN(C)C)CC1` [Compound 52, Ethyl 4-(((trans)-4-((dimethylamino)methyl)cyclohexyl)amino)-6-(4-hydroxy-3,5-dimethylphenyl)-1,5-naphthyridine-3-carboxylate], the “Index (CC50/EC50), Cytotoxicity / Activity Index” value in the data set with HEK293T cells [6] is above 842.
In the case of `CCOC(=O)c1cnc2ccc(-c3ccncc3)nc2c1N[C@H]1CC[C@H](CN(C)C)CC1` [Compound 56, Ethyl 4-(((trans)-4-((dimethylamino)methyl)cyclohexyl)amino)-6-(pyridin-4-yl)-1,5-naphthyridine-3-carboxylate], in data set [9], the “HLM t1/2” value is listed as “readily metabolized”. Also, binding on MELK [10] was put at a Kd of 15 nM. The “cytotoxicity (cell number)” value with HEK293T cells [1] (56 alone at 30 nM, 90 nM or 270 nM, 48 h) was “no cytotoxicity”. Moreover, in data set [11], the “MLM t1/2” value is “readily metabolized”. The Caco-2 in data set [8] is recorded as 4.03 1 x 10^−6 cm/s.
Turning to `CCNC(=O)c1cnc2ccc(-c3ccnc(N)c3)nc2c1N[C@H]1CC[C@H](CN(C)C)CC1` [Compound 60, 6-(2-Aminopyridin-4-yl)-4-(((trans)-4-((dimethylamino)methyl)cyclohexyl)amino)-N-ethyl-1,5-naphthyridine-3-carboxamide], on DYRK1A [7], the “DYRK1A-Luc EC50” value is listed as “maintained good DYRK1A activity”.
On to `CCOC(=O)c1cnc2ccc(-c3ccnc(N)c3)nc2c1N[C@H]1CC[C@H](CN2CCOCC2)CC1` [Compound 63, Ethyl 6-(2-aminopyridin-4-yl)-4-(((trans)-4-(morpholinomethyl)cyclohexyl)amino)-1,5-naphthyridine-3-carboxylate], for which, in data set [9], the “HLM t1/2” value is “readily metabolized”. Besides, the “MLM t1/2” value in data set [11] was “readily metabolized”. Also, in data set [8], the Caco-2 is 2.7 1 x 10^−6 cm/s.
For the compound `CC(C)Oc1ccc(F)c(-c2cnc(N)c(C(=O)Nc3cnccc3N3CCC[C@@H](C(=O)O)C3)n2)c1` [GNF-4877], the “human β-cell replication induction-potency [ECmin]” value in the data set on human β-cells [3] is ~ 100 nM.
Turning to `COc1ccc2c(c1)[nH]c1c(C)nccc12` [Harmine, harmine], the “human β-cell replication induction-potency [ECmin]” value in the data set with human β-cells [3] is ~ 3,000 nM.
In “in vitro” (HEK293T cells), `O=C(O)[C@]1(Cc2cccc(Nc3nccs3)n2)CC[C@@H](Oc2cccc(Cl)c2F)CC1` [MK-5108] showed a CC50 at 48 h above 10000 nM. For the same compound, the cells killed with HEK293T cells [1] (MK 3 μM with 56 at 30 nM, 48 h) is 31%; in the data set with HEK293T cells [1] (MK 3 μM with 56 at 90 nM, 48 h), 36%; in the data set with HEK293T cells [1] (MK 3 μM with 56 at 270 nM, 48 h), 34%.
In the data set “in vitro”, `O=C(O)c1ccc(Nc2ncc3c(n2)-c2ccc(Cl)cc2C(c2c(F)cccc2F)=NC3)cc1` [MLN-8054] gave a CC50 at 48 h of 55.1 nM. Besides, the “reduction in cell number / cells killed” value in the data set with HEK293T cells [1] (48 h) was determined as 50%.
Take `Cn1c(=O)c(F)c(Nc2ccc(I)cc2F)c2c(=O)n(C[C@@H](O)CO)cnc21` [TAK-733]: the cytotoxicity in combination entry in the data set on HEK293T cells [1] (TAK-733 10 uM combined with 56 (30 nM, 90 nM, or 270 nM)) is “did not exhibit cytotoxicity”. Besides, in the data set with HEK293T cells [1] (inhibitor alone at 10 uM, 48 h), the cells killed entry was “did not exhibit cytotoxicity”.
